Experimental data from patent US8587857B2, “Electro-wetting display device and non-polar color solution thereof” (Industrial Technology Research Institute, priority 2010, dated 2013).

Assay: solubility of dye in dodecane non-polar solvent, with or without trimethylbenzene (TMB) improvement agent
Format: physicochemical
Method: For example, when a red dye (for example, the C.I. solvent red 164) is dissolved in a dodecane non-polar solvent, a solubility thereof is about 4 wt %.
For another example, when a blue dye (for example, the C.I. solvent blue 98) is dissolved in the dodecane non-polar solvent, a solubility thereof is about 8 wt %.

In the case of C.I. solvent blue 98, the solubility (dye dissolved in dodecane non-polar solvent added with trimethylbenzene (TMB) improvement agent) is reported as 21.5 wt % and the solubility (dye dissolved in dodecane non-polar solvent, no improvement agent) is reported as “about 8 wt %”.
